# Laboratory results reported in ChEMBL document CHEMBL3046626, “Antifungal chalcones and new caffeic acid esters from Zuccagnia punctata acting against soybean infecting fungi” (2004).
# What was measured:
# Format in all cases: functional
# Fusarium equiseti = assay: Antifungal activity against Fusarium equiseti (CE181) after 48 to 72 hr
# Fusarium graminearum [1] = assay: microbe, parasite or virus in culture; conditions: isolate CE135
# Fusarium graminearum [2] = assay: microbe, parasite or virus in culture; conditions: isolate CE170
# Fusarium graminearum [3] = assay: microbe, parasite or virus in culture; conditions: isolate CE169
# Fusarium graminearum [4] = assay: microbe, parasite or virus in culture; conditions: isolate CE171
# Alternaria alternata = assay: Antifungal activity against Alternaria alternata (CE172) after 48 to 72 hr
# Macrophomina phaseolina = assay: Antifungal activity against Macrophomina phaseolina isolate CE173 after 48 to 72 hr
# Colletotrichum truncatum = assay: Antifungal activity against Colletotrichum truncatum CE175 after 48 to 72 hr
# Diaporthe longicolla = assay: Antifungal activity against Diaporthe longicolla CE117 after 48 to 72 hr
compound,measurement,setting,value
"O=C(/C=C/c1ccccc1)c1ccc(O)cc1O [2',4'-DIHYDROXYCHALCONE]",MIC,Fusarium equiseti,25 µg/mL
same,MIC,Fusarium graminearum [1],25 µg/mL
same,MIC,Fusarium graminearum [2],25 µg/mL
same,MIC,Fusarium graminearum [3],25 µg/mL
same,MIC,Fusarium graminearum [4],25 µg/mL
same,MIC,Alternaria alternata,25 µg/mL
same,MIC,Macrophomina phaseolina,50 µg/mL
same,MIC,Colletotrichum truncatum,6.25 µg/mL
same,MIC,Diaporthe longicolla,3.12 µg/mL
COC(=O)N(OC)c1ccccc1COc1ccn(-c2ccc(Cl)cc2)n1 [PYRACLOSTROBIN],MIC,Fusarium equiseti,12.5 µg/mL
same,MIC,Fusarium graminearum [1],1 µg/mL
same,MIC,Fusarium graminearum [2],0.05 µg/mL
same,MIC,Fusarium graminearum [3],20 µg/mL
same,MIC,Fusarium graminearum [4],0.05 µg/mL
same,MIC,Alternaria alternata,0.4 µg/mL
same,MIC,Macrophomina phaseolina,2.5 µg/mL
same,MIC,Colletotrichum truncatum,0.04 µg/mL
same,MIC,Diaporthe longicolla,0.01 µg/mL
COC(=O)Nc1nc2ccccc2[nH]1 [CARBENDAZIM],MIC,Fusarium equiseti,0.75 µg/mL
same,MIC,Fusarium graminearum [1],0.75 µg/mL
same,MIC,Fusarium graminearum [2],0.75 µg/mL
same,MIC,Fusarium graminearum [4],0.4 µg/mL
same,MIC,Alternaria alternata,75 µg/mL
same,MIC,Macrophomina phaseolina,0.25 µg/mL
same,MIC,Colletotrichum truncatum,0.01 µg/mL
same,MIC,Diaporthe longicolla,0.01 µg/mL
CC(CCc1ccc(O)cc1)OC(=O)/C=C/c1ccc(O)c(O)c1 (stereo unspecified),MIC,Fusarium equiseti,> 50 µg/mL
same,MIC,Fusarium graminearum [1],> 50 µg/mL
same,MIC,Fusarium graminearum [2],> 50 µg/mL
same,MIC,Fusarium graminearum [3],> 50 µg/mL
same,MIC,Fusarium graminearum [4],> 50 µg/mL
same,MIC,Alternaria alternata,> 50 µg/mL
same,MIC,Macrophomina phaseolina,> 50 µg/mL
same,MIC,Colletotrichum truncatum,> 50 µg/mL
same,MIC,Diaporthe longicolla,6.25 µg/mL
COc1c(O)ccc(C(=O)/C=C/c2ccccc2)c1O [LARREIN],MIC,Fusarium equiseti,25 µg/mL
same,MIC,Fusarium graminearum [1],12.5 µg/mL
same,MIC,Fusarium graminearum [2],25 µg/mL
same,MIC,Fusarium graminearum [3],12.5 µg/mL
same,MIC,Fusarium graminearum [4],12.5 µg/mL
same,MIC,Alternaria alternata,25 µg/mL
same,MIC,Macrophomina phaseolina,50 µg/mL
same,MIC,Colletotrichum truncatum,6.25 µg/mL
same,MIC,Diaporthe longicolla,6.25 µg/mL
CO/C=C(/C(=O)OC)c1ccccc1Oc1cc(Oc2ccccc2C#N)ncn1 [AZOXYSTROBIN],MIC,Fusarium equiseti,12.5 µg/mL
same,MIC,Fusarium graminearum [1],5 µg/mL
same,MIC,Fusarium graminearum [2],0.25 µg/mL
same,MIC,Fusarium graminearum [3],7.5 µg/mL
same,MIC,Fusarium graminearum [4],0.4 µg/mL
same,MIC,Alternaria alternata,2.5 µg/mL
same,MIC,Macrophomina phaseolina,2.5 µg/mL
same,MIC,Colletotrichum truncatum,0.05 µg/mL
same,MIC,Diaporthe longicolla,0.05 µg/mL
CC(=O)N1CCN(c2ccc(OCC3COC(Cn4ccnc4)(c4ccc(Cl)cc4Cl)O3)cc2)CC1 (stereo unspecified) [KETOCONAZOLE],MIC,Fusarium equiseti,50 µg/mL
same,MIC,Fusarium graminearum [1],40 µg/mL
same,MIC,Fusarium graminearum [2],40 µg/mL
same,MIC,Fusarium graminearum [3],40 µg/mL
same,MIC,Fusarium graminearum [4],40 µg/mL
same,MIC,Alternaria alternata,5 µg/mL
same,MIC,Macrophomina phaseolina,50 µg/mL
same,MIC,Colletotrichum truncatum,1.5 µg/mL
same,MIC,Diaporthe longicolla,0.5 µg/mL
CC(CCc1ccc(O)c(O)c1)OC(=O)/C=C/c1ccc(O)c(O)c1 (stereo unspecified),MIC,Fusarium equiseti,> 50 µg/mL
same,MIC,Fusarium graminearum [1],> 50 µg/mL
same,MIC,Fusarium graminearum [2],> 50 µg/mL
same,MIC,Fusarium graminearum [3],> 50 µg/mL
same,MIC,Fusarium graminearum [4],> 50 µg/mL
same,MIC,Alternaria alternata,> 50 µg/mL
same,MIC,Macrophomina phaseolina,> 50 µg/mL
same,MIC,Colletotrichum truncatum,> 50 µg/mL
same,MIC,Diaporthe longicolla,> 50 µg/mL
